Our source for the melting point values is patent US7049444B2, “3-azabicyclo[3.1.0]hexane derivatives useful in therapy” (Pfizer Inc., priority 1998, dated 2006).

Counter-ions that a name gives are not always drawn.

The compound `CC1(c2cccc(NS(C)(=O)=O)c2)C2CN(Cc3ccccc3)CC21` (stereo not drawn) [Example 22, N-[3-(3-Benzyl-6-methyl-3-azabicyclo[3.1.0]hex-6-yl)phenyl]methanesulfonamide] came in with a melting point of 117 to 118 °C. For `CC1(c2cccc(NS(C)(=O)=O)c2)C2CN(CCCc3ccccc3)CC21` (stereo not drawn) (as salt: hydrochloride), the melting point lay in the range of 212 to 214 °C.

`CC1(c2cccc(NS(C)(=O)=O)c2)C2CN(CCCc3ccccc3)CC21` (stereo not drawn) (as salt: toluenesulfonate) yielded a melting point of 182 to 184 °C.

The compound `CC1(c2cccc(NS(C)(=O)=O)c2)C2CN(CCCc3ccccc3)CC21` (stereo not drawn) (as salt: tartrate) came in with a melting point of 162 to 164 °C. In turn, `CC1(c2cccc(NS(C)(=O)=O)c2)C2CN(CCc3ccc(C(F)(F)F)cc3)CC21` (stereo not drawn) had a melting point of 159 to 161 °C. Turning to `CC1(c2cccc(NS(C)(=O)=O)c2)C2CN(CCCc3ccccc3)CC21` (stereo not drawn) (as salt: benzenesulfonate), the melting point lay in the range of 166 to 168 °C.
